The source of these data is patent US7524853B2 (Solvay Pharmaceuticals B.V., priority 2003, dated 2009).

What all share (format): cell-based
The target of test [1] is T1, 17β-hydroxysteroid dehydrogenase type 1 (17β-HSD type 1) (Homo sapiens, UniProt P14061).
T1 construct: expressed in transfected cells; host or cells: MCF-7
T1 sequence (P14061 1-328): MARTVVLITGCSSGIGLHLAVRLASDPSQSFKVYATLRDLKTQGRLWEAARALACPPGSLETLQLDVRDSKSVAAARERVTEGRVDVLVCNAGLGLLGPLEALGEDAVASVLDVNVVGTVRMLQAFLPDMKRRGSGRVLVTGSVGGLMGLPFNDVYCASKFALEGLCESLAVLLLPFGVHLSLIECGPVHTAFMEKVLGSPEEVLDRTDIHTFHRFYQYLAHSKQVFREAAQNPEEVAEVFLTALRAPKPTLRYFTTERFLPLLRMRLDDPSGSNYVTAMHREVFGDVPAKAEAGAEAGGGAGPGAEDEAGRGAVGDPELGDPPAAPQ
The test is described as follows: Inhibition of 17β-HSD type 1 in MCF-7 cells stably expressing the isoenzyme (tritium labeled estrone conversion, HPLC). The following applies: MCF-7 cells expressing 17β-HSD type 1, 2 nM tritium labeled estrone; for inhibition at 1 µM / inhibition at 10 µM: MCF7; for inhibition at 1 µM: read-out: % Inhibition HSD1 1 μM; for inhibition at 10 µM: read-out: % Inhibition HSD1 10 μM. The essentials: (§1)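 Compounds are tested at two concentrations on MCF-7 cells carrying a single 17β-HSD isoenzyme, with 2 nM tritiated estrone, estradiol or androstenedione as type 1, 2 or 3 substrate. Percent inhibition reflects lower conversion relative to a compound-free control.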

Test [2] deals with T2, 17β-hydroxysteroid dehydrogenase type 2 (17β-HSD type 2) (Homo sapiens, UniProt P37059).
T2 construct: expressed in transfected cells; host or cells: MCF-7
T2 sequence (P37059 1-387): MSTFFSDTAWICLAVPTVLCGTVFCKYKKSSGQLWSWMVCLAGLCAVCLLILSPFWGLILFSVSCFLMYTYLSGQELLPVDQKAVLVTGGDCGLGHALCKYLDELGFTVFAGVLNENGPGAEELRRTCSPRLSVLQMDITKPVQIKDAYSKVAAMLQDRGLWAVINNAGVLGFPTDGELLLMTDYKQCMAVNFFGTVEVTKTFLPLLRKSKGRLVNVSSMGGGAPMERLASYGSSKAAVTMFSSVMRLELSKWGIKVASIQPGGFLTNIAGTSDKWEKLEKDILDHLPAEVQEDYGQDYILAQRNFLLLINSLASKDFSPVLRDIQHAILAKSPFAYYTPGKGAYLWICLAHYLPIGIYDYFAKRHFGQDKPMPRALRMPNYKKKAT
Nature of the test: Inhibition of 17β-HSD type 2 in MCF-7 cells stably expressing the isoenzyme (tritium labeled estradiol conversion, HPLC). The conditions noted are these: MCF-7 cells expressing 17β-HSD type 2, 2 nM tritium labeled estradiol; for inhibition at 1 µM / inhibition at 10 µM: MCF7; for inhibition at 1 µM: read-out: % Inhibition HSD2 1 μM; for inhibition at 10 µM: read-out: % Inhibition HSD2 10 μM. The essentials:
as §1

Test [3] concerns the target T3, 17β-hydroxysteroid dehydrogenase type 3 (17β-HSD type 3) (Homo sapiens, UniProt P37058).
T3 construct: expressed in transfected cells; host or cells: MCF-7
T3 sequence (P37058 1-310): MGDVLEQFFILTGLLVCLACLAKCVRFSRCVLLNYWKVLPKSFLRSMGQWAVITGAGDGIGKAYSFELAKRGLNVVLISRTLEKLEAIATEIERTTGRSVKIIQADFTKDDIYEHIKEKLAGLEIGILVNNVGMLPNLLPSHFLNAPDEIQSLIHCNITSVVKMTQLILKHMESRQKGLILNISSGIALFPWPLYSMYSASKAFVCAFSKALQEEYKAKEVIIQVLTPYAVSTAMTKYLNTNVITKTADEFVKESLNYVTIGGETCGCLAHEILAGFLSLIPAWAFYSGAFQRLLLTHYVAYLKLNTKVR
Nature of the test: Inhibition of 17β-HSD type 3 in MCF-7 cells stably expressing the isoenzyme (tritium labeled androstenedione conversion, HPLC). The conditions noted are these: MCF-7 cells expressing 17β-HSD type 3, 2 nM tritium labeled androstenedione; for inhibition at 1 µM / inhibition at 10 µM: MCF7; for inhibition at 1 µM: read-out: % Inhibition HSD3 1 μM; for inhibition at 10 µM: read-out: % Inhibition HSD3 10 μM. The method in brief: as §1

Molecules are shown by their SMILES.

What is called inhibition is the relative decrease from the control value, in per cent. Take `COc1cc(-c2nc3sc4c(c3c(=O)n2CC(C)C)CCCC4=O)cc(OC)c1OC` [No. 114, 3-Isobutyl-2-(3,4,5-trimethoxyphenyl)-6,7-dihydro-3H,5H-benzo[4,5]thieno[2,3-d]pyrimidine-4,8-dione]: the inhibition at 1 µM in test [1] (1 μM test compound) came to 15.5%; in test [2] (1 μM test compound) it was 15.5%; in test [3] (1 μM test compound), 2.4%. Besides, the inhibition at 10 µM was 55.9% in test [1] (10 μM test compound), 25.3% in test [2] (10 μM test compound) and 32% in test [3] (10 μM test compound).

With `CCSC1=C(C=O)CCc2c1sc1nc(-c3cc(OC)c(OC)c(OC)c3)n(Cc3ccccc3)c(=O)c21` [No. 6, 3-Benzyl-8-ethylsulfanyl-4-oxo-2-(3,4,5-trimethoxyphenyl)-3,4,5,6-tetrahydro-benzo[4,5]thieno[2,3-d]pyrimidine-7-carbaldehyde], the inhibition at 1 µM came to 31.8% in test [1] (1 μM test compound), 3.8% in test [2] (1 μM test compound) and 2.1% in test [3] (1 μM test compound). For the same molecule, the inhibition at 10 µM in test [1] (10 μM test compound) worked out at 44.2%; in test [2] (10 μM test compound), 29.7%; in test [3] (10 μM test compound), 47.1%.

With `O=c1c2c(nc(CCc3ccccc3)n1CCc1cccs1)sc1c(O)cccc12` [No. 639], the “% Inhibition HSD1 1 μM” value in test [1] (1 μM test compound) is on record as 22.6%. The “% Inhibition HSD1 10 μM” value in test [1] (10 μM test compound) is on record as 39.3%. Further, in test [2] (1 μM test compound), the “% Inhibition HSD2 1 μM” value was found to be 18.2%. Besides, in test [2] (10 μM test compound), the “% Inhibition HSD2 10 μM” value is on record as 24.0%. Further, in test [3] (1 μM test compound), the “% Inhibition HSD3 1 μM” value was 33.6%. Moreover, the “% Inhibition HSD3 10 μM” value in test [3] (10 μM test compound) amounted to 76.2%.

`CCCc1nc2sc3c(OC(C)=O)cccc3c2c(=O)n1Cc1ccc(Br)o1` [No. 106, Acetic acid 3-(5-bromofuran-2-ylmethyl)-4-oxo-2-propyl-3,4-dihydro-benzo[4,5]thieno[2,3-d]pyrimidin-8-yl ester]: the inhibition at 1 µM in test [1] (1 μM test compound) came to 28.8%; in test [2] (1 μM test compound) it was 50%; in test [3] (1 μM test compound) it was 8.1%. Besides, the results for the inhibition at 10 µM in test [1] (10 μM test compound), in test [2] (10 μM test compound) and in test [3] (10 μM test compound) were 72.5%, 86.2% and 71.1%, respectively.

As for `COc1cccc(-c2nc3sc4c(c3c(=O)n2Cc2ccccc2)CCC(Br)(Br)C4=O)c1` [No. 81, 3-Benzyl-7,7-dibromo-2-(m-methoxyphenyl)-6,7-dihydro-3H,5H-benzo[4,5]thieno[2,3-d]pyrimidine-4,8-dione], the results for the inhibition at 1 µM in test [1] (1 μM test compound), in test [2] (1 μM test compound) and in test [3] (1 μM test compound) were 33.1%, 32.1% and 7.8%, respectively. Also, the inhibition at 10 µM stood at 16.8% in test [1] (10 μM test compound), 35.6% in test [2] (10 μM test compound) and 26.2% in test [3] (10 μM test compound).

As to `COc1ccc(-c2nc3sc4c(c3c(=O)n2-c2ccccc2)CCCC4=O)cc1` [No. 23, 3-Phenyl-2-(p-methoxyphenyl)-6,7-dihydro-3H,5H-benzo[4,5]thieno[2,3-d]pyrimidin-4,8-dione], the inhibition at 1 µM in test [1] (1 μM test compound) amounted to 18.6%; in test [2] (1 μM test compound), 6.8%; in test [3] (1 μM test compound), 6.8%. For the same molecule, the values for the inhibition at 10 µM in test [1] (10 μM test compound), in test [2] (10 μM test compound) and in test [3] (10 μM test compound) were 45.3%, 9.4% and 15.4%, respectively.

`CCC(C)Cn1c(-c2cc(OC)c(OC)c(OC)c2)nc2sc3c(c2c1=O)CCCC3` (stereo not drawn) [No. 125, 3-(2-Methylbutyl)-2-(3,4,5-trimethoxyphenyl)-5,6,7,8-tetrahydro-3H-benzo[4,5]thieno[2,3-d]pyrimidin-4-one]: the results for the inhibition at 1 µM in test [1] (1 μM test compound), in test [2] (1 μM test compound) and in test [3] (1 μM test compound) were 34.7%, 11.7% and 10.9%, respectively. The inhibition at 10 µM turned out to be 49.9% in test [1] (10 μM test compound), 19.8% in test [2] (10 μM test compound) and 21% in test [3] (10 μM test compound).

With `CCCCn1c(-c2cc(OC)c(OC)c(OC)c2)nc2sc3c(c2c1=O)CCCC3` [No. 85, 3-Butyl-2-(3,4,5-trimethoxyphenyl)-5,6,7,8-tetrahydro-3H-benzo[4,5]thieno[2,3-d]pyrimidin-4-one], the inhibition at 1 µM is 24.1% in test [1] (1 μM test compound), 21.5% in test [2] (1 μM test compound) and -2.2% in test [3] (1 μM test compound). The inhibition at 10 µM came to 40.1% in test [1] (10 μM test compound), 25.4% in test [2] (10 μM test compound) and 24.4% in test [3] (10 μM test compound).
